Legend:
[1] = test system: arachidonic acid-induced mouse ear edema; experiment: Arachidonic acid-induced mouse ear edema test, single topical application; format: in vivo, Balb/c mice; details: 4% arachidonic acid
Method: Evaluation of the Anti-Inflammatory Activity of Ivermectin and of Brimonidine after a Single Topical Application in the Arachidonic Acid-Induced Mouse Ear Edema Test on Balb/c Mice
Arachidonic acid is dissolved in a mixture of THF/methanol at 4%.
Ivermectin is dissolved in the solution of arachidonic acid (AA) and tested at the concentration of 1%.
20 μl of the solution are applied to the internal surface of the right ear.
The thickness of the ear is measured at T+1 h, T+2 h and T+4 h.
FIG. 1 represents the average measurement of the thickness of the ear edema, i.e. the average measurement of the thickness of the ear after treatment, from which is subtracted the average measurement of the thickness of the ear obtained with the control (nontreated) group, this being after treatment with 4% arachidonic acid ( ? ), 1% ivermectin (□), 0.2% brimonidine ( ? ), and the combination of ivermectin and brimonidine ( ? ).

[2] = test system: TPA-induced mouse ear edema; experiment: TPA-induced mouse ear edema test, single topical application; format: in vivo, Balb/c mice; details: TPA 0.01%, T+6 h; for reduction in the ear edema (TPA): single topical application
Method: The test compounds are diluted in the TPA solution. […] Brimonidine is added at the concentration of 0.2%. […] FIG. 2 represents the average measurement of the ear edema thickness as a function of the dose of test compound as %, i.e. the average measurement of the ear thickness after treatment, from which is subtracted the average measurement of the thickness of the ear obtained with the control (nontreated) group, […]

COc1ccc2c(c1)c(CC(=O)O)c(C)n2C(=O)c1ccc(Cl)cc1 [Indomethacin]
inhibition of the ear edema caused by arachidonic acid ([1]; indomethacin at 5%, topical, Balb/c mice): 95%

Ivermectin
reduction of the ear edema caused by arachidonic acid ([1]; ivermectin alone 1%, single topical application): 56%
reduction in the ear edema (TPA) ([2]; ivermectin 0.3%): 57%
reduction in the ear edema (TPA) ([2]; ivermectin 1%): 90%

CCCCC(=O)O[C@]1(C(=O)CO)[C@@H](C)C[C@H]2[C@@H]3CCC4=CC(=O)C=C[C@]4(C)[C@@]3(F)[C@@H](O)C[C@@]21C [β-methasone valerate (BMV), β-methasone valerate]
inhibition of the mouse ear edema (TPA) ([2]; BMV at 0.01%): 89%

Brc1c(NC2=NCCN2)ccc2nccnc12 [brimonidine]
reduction of the mouse ear edema (TPA) ([2]; brimonidine alone 0.2%): 50%
